Here are results for two compounds from US9050328B2 (Jiangsu Hansoh Pharmaceutical Group Co., Ltd., priority 2010, dated 2015).

The nature of series [1]: In vitro dissolution rate test in phosphate buffer (1000 ml, 50 turns per minute, HPLC). It counts as physicochemical. Set-up: unit not given here. The protocol: PVP was used as the carrier material. The solid dispersion is prepared by solvent method (drug:carrier=1:10), and the method to evaluate solubility in vitro is given as follows:
Using this method, 5 ml of the solution was taken at 5 min, 10 min, 15 min, 20 min, 30 min, 45 min, and 60 min (5 ml dissolution medium was supplemented after the 5 ml solution was taken out) and filtered. The filtrate was taken as the test solution and checked for purity using HPLC.
(2) A solid dispersion which contains the drug substance 5 mg, according to the method of dissolution rate test and 1000 ml at pH 6.8 phosphate buffer was used as dissolution medium, with a rotating speed of 50 turns per minute. Using this method, 5 ml of the solution was taken at 5 min, 10 min, 15 min, 20 min, 30 min, 45 min, and 60 min (5 ml dissolution medium was supplemented after the 5 ml solution was taken out) and filtered. The filtrate was taken as the test solution and checked for purity using HPLC.
The dissolution rate of examples 1-11 were evaluated by the evaluation system mentioned above.
The dissolution rate was evaluated in pH 4.5 phosphate buffer:
The dissolution rate was evaluated in pH6.8 phosphate buffer: […]

The conditions of series [2]: cited from earlier work.
The conditions of series [3]: drugs administrated alone; cited from earlier work.
Series [4] can be described thus: In vitro dissolution rate test in phosphate buffer (1000 ml, 50 turns per minute, HPLC). It counts as physicochemical.

Structures can show the parent of a compound that is named as a salt. Where two headings read alike, the source gives them in different places.

In the case of `CC(=O)Oc1cc2c(s1)CCN(C(C(=O)C1CC1)c1ccccc1F)C2` (stereo not drawn) [Prasugrel hydrochloride, prasugrel hydrochloride], the dissolution rate was 0 in series [1] (pH 4.5 phosphate buffer, 0 min); 16.71 in series [1] (pH 4.5 phosphate buffer, 5 min); 26.66 in series [1] (pH 4.5 phosphate buffer, 10 min); 32.45 in series [1] (pH 4.5 phosphate buffer, 15 min); 36.78 in series [1] (pH 4.5 phosphate buffer, 20 min); 43.42 in series [1] (pH 4.5 phosphate buffer, 30 min). For the same compound, the dissolution rate in series [1] (pH 6.8 phosphate buffer, 0 min) was 0; in series [1] (pH 6.8 phosphate buffer, 5 min), 13.69; in series [1] (pH 6.8 phosphate buffer, 15 min), 21.03; in series [1] (pH 6.8 phosphate buffer, 30 min), 23.99; in series [1] (pH 6.8 phosphate buffer, 45 min), 25.13; in series [1] (pH 6.8 phosphate buffer, 60 min), 25.62. Moreover, the solubility entry in series [2] (pH 1-4) is given as “slightly soluble”; in series [2] (pH 5), “very slightly soluble”; in series [2] (pH 6-7), “insoluble”. In addition, the “bioavailability, hydrochloride vs free base form” value in series [3] is reported as “about equal”.
Turning to `CC(=O)Oc1cc2c(s1)CCN(C(C(=O)C1CC1)c1ccccc1F)C2` (stereo not drawn) [prasugrel, 5-(2-cyclopropyl-1-(2-fluorophenyl)-2-oxoethyl)-4,5,6,7-tetrahydrothieno[3,2-c]pyridin-2-yl acetate], in series [4] (pH4.5 and pH6.8, compared to prasugrel hydrochloride prepared by only micronization), the “dissolution rate after micronization only” value is “improved, but there is still a gap”. Further, in series [4] (pH 6.8, compared to prasugrel hydrochloride), the “solubility after micronization only” value is listed as “poorer than that of prasugrel hydrochloride”.
